From article PMC6024209, “Inhibition of P. aeruginosa c-di-GMP phosphodiesterase RocR and swarming motility by a benzoisothiazolinone derivative” (Chemical Science, 2016)

Target: RocR (Pseudomonas aeruginosa, UniProt Q9HX69)
Assay: RocR intrinsic fluorescence change (Kd […] by two fits); also non-competitive enzyme inhibition, Ki […]
Format: binding

RocR, sequence (Q9HX69 whole entry): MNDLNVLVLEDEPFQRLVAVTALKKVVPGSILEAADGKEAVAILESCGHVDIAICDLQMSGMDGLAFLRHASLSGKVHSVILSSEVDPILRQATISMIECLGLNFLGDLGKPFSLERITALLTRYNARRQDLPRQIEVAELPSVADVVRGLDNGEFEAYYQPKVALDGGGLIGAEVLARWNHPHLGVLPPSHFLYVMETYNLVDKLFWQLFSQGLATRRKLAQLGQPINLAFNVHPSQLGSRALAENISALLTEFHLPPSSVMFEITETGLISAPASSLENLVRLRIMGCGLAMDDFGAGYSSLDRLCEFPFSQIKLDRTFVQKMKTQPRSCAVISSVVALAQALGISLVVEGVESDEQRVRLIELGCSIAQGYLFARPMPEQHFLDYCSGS

Q: Which Kd does the source give for `O=C(CCCn1sc2ccccc2c1=O)Nc1ccc(O)cc1` [compound 1] here?
A: 14 ± 2 µM
